What was measured:
EphA4-TAP = target: T1, EphA4-TAP (Homo sapiens, UniProt P54764); experiment: Cellular Eph kinase tyrosine phosphorylation assay; type: cell-based; conditions: SK-N-BE2 neuroblastoma cells, treatment 10 min. at 37 °C, Western blot anti-phosphotyrosine
T1 construct: The cDNAs encoding the complete ORF are obtained by RT-PCR; expressed in transfected cells; host or cells: SK-N-BE2 neuroblastoma cells (ATCC CRL-2271), retroviral transduction
Experimental: (§1) Following treatment, cells were lysed in a detergent-containing buffer and TAP-tagged Eph kinases were captured with IgG beads. Bound TAP-tagged proteins were analyzed by SDS-PAGE and Western blotting, utilizing either anti-phosphotyrosine or anti-TAP antibodies for detection.
(§2) Cells are plated in 6-well plates in growth medium (see above). […] This feature is exploited to monitor the effect of Eph kinase modulators. Test compounds are diluted (from a stock in DMSO) in serum-free medium and added to cells for indicated times. Cells are chilled on ice and washed with ice-cold PBS. They are then lysed in 300 μl lysis buffer (50 mM Tris-HCl, 1% NP-40, 0.05% SDS, 100 mM NaCl, 1.5 mM MgCl2, 2 mM EDTA, 5% glycerol, pH 7.6) for 20 min at 4 °C and cleared by centrifugation at 16,100×g in a table-top centrifuge for 20 min.
(§3) Lysates are subsequently incubated with 20 μl pre-washed rabbit IgG beads (Sigma) for 2 h with constant agitation at 4° C. Beads are finally washed with 1 ml of lysis buffer and immobilized protein complexes are eluted by boiling in 40 μl SDS sample buffer.

EphB2-TAP = target: T2, EphB2-TAP (Homo sapiens, UniProt P29323); experiment: Cellular Eph kinase tyrosine phosphorylation assay; type: cell-based; conditions: SK-N-BE2 neuroblastoma cells, treatment 10 min. at 37 °C, Western blot anti-phosphotyrosine
T2 construct: The cDNAs encoding the complete ORF are obtained by RT-PCR; expressed in transfected cells; host or cells: SK-N-BE2 neuroblastoma cells (ATCC CRL-2271), retroviral transduction
T2 sequence (P29323 19-1055): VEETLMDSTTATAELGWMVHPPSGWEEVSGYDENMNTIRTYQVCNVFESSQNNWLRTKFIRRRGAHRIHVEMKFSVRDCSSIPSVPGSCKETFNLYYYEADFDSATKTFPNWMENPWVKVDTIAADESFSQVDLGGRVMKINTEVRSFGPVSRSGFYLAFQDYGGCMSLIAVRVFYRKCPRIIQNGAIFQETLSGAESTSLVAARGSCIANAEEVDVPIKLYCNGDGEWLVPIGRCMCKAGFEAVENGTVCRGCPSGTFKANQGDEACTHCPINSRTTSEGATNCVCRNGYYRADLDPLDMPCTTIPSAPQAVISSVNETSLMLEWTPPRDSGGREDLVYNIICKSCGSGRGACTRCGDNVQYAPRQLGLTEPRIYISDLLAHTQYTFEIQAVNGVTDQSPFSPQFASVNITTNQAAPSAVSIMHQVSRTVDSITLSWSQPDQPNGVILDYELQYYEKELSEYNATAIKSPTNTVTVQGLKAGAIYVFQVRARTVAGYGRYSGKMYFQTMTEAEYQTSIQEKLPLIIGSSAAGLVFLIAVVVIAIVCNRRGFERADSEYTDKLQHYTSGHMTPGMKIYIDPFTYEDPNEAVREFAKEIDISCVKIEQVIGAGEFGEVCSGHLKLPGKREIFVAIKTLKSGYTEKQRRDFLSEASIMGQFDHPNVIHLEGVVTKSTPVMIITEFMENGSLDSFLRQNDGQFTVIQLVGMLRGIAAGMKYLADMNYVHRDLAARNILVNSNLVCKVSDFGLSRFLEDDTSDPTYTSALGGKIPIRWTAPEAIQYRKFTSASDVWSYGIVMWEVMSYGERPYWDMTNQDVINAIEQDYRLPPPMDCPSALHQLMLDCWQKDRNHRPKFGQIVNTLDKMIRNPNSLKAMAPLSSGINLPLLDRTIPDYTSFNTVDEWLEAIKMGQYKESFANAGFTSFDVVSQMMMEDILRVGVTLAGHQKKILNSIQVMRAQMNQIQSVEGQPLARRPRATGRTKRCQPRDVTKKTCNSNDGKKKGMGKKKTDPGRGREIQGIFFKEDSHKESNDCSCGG
Experimental: as §1, §2, §3

TAP-tagged Eph kinases [1] = experiment: Autophosphorylation of TAP-tagged Eph kinases in cells; type: cell-based; conditions: in cells (FIG. 2)
Experimental: Cells are plated in 6-well plates in growth medium (see above). To test potential modulators, preferably inhibitors, of Eph kinase tyrosine phosphorylation, cells are starved in serum-free medium for 4 h. Under these conditions, Eph-TAP kinase is partially constitutively phosphorylated-presumably through autophosphorylation that is commonly associated with over-expression of receptor tyrosine kinases. This feature is exploited to monitor the effect of Eph kinase modulators. Test compounds are diluted (from a stock in DMSO) in serum-free medium and added to cells for indicated times. Cells are chilled on ice and washed with ice-cold PBS. They are then lysed in 300 μl lysis buffer (50 mM Tris-HCl, 1% NP-40, 0.05% SDS, 100 mM NaCl, 1.5 mM MgCl2, 2 mM EDTA, 5% glycerol, pH 7.6) for 20 min at 4 °C and cleared by centrifugation at 16,100×g in a table-top centrifuge for 20 min.
as §3
Blot membranes are probed with monoclonal antibody 4G10 (Upstate Biotechnology) or with HRP-coupled PAP antibody (see above).

TAP-tagged Eph kinases [2] = experiment: Autophosphorylation of TAP-tagged Eph kinases in-vitro; type: biochemical; conditions: data not shown
EphA6 = target: T3, EphA6 (Mus musculus, UniProt Q62413); experiment: Chemical proteomics pull-down with immobilized compound, LC-MS/MS identification; conditions: maximum in any chemical proteomics experiment
T3 sequence (Q62413 23-1035): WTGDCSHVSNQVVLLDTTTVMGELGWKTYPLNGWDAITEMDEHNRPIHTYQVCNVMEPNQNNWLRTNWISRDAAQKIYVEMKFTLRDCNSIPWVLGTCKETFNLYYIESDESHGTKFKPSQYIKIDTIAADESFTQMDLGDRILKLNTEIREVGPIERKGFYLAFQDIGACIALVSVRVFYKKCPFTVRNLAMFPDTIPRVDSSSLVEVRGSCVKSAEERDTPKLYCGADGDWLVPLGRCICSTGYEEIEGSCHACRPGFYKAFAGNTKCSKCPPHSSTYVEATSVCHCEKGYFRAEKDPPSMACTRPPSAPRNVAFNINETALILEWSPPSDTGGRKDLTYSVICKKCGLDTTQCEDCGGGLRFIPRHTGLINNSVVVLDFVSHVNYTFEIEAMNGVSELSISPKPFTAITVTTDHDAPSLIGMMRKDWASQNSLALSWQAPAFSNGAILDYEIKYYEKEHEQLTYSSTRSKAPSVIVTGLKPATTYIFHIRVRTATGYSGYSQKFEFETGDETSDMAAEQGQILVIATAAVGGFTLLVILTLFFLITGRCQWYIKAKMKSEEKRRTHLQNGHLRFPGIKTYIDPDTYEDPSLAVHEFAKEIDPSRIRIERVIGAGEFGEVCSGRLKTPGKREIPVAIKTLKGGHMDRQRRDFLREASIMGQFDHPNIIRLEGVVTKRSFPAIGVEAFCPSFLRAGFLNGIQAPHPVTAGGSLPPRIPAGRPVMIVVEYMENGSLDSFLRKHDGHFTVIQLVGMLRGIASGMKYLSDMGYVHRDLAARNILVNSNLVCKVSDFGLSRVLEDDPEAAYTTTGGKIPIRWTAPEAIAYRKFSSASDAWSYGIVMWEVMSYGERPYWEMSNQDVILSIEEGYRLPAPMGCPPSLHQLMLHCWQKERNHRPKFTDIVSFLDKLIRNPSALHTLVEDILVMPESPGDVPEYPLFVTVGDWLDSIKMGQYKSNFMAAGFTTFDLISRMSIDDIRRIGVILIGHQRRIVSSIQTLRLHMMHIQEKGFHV

T1 sequence (P54764 20-986): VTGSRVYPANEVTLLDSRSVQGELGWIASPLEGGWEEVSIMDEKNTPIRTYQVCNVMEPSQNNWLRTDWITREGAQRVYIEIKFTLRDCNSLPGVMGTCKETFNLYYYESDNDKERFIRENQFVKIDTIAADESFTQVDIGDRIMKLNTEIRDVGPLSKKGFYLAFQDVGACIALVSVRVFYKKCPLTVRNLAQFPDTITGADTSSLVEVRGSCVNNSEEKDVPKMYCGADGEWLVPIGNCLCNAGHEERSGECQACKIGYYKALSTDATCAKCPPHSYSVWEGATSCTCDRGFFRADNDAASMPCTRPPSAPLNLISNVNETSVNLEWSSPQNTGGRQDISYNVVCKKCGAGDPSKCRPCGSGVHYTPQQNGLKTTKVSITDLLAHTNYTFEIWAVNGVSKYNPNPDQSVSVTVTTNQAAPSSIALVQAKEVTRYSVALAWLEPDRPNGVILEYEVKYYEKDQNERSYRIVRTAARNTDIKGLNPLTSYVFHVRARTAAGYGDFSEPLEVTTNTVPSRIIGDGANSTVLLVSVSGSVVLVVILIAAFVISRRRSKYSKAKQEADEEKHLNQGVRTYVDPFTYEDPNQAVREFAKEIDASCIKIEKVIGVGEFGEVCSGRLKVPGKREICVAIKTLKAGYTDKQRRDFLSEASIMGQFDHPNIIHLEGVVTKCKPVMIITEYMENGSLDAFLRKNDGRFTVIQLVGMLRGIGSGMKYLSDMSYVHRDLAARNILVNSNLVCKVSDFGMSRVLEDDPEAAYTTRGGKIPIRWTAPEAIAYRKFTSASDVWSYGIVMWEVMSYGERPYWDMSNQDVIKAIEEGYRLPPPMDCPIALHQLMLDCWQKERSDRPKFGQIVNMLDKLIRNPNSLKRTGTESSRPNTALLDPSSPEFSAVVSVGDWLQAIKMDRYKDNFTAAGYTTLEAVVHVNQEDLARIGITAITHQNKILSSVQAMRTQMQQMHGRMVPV

Compound: Cc1ccc(NC(=O)c2ccc(CN3CCN(C)CC3)cc2)cc1Nc1nccc(-c2cccnc2)n1 [Gleevac]
- tyrosine phosphorylation of EphA4-TAP (EphA4-TAP): inhibits tyrosine phosphorylation of Eph kinases in a concentration-dependent manner
- tyrosine phosphorylation of EphB2-TAP (EphB2-TAP): inhibits tyrosine phosphorylation of Eph kinases in a concentration-dependent manner
- inhibition of autophosphorylation of TAP-tagged Eph kinases in cells (TAP-tagged Eph kinases [1]): potent inhibitors
- inhibition of autophosphorylation of TAP-tagged Eph kinases in-vitro (TAP-tagged Eph kinases [2]): potent inhibitors

Compound: NCCCn1cc(C2=C(c3c[nH]c4ccccc34)C(=O)NC2=O)c2ccccc21 [BisIII]
- maximal number of non-redundant peptides identified, EphA6 (EphA6): 7

Source: patent publication US20080213250A1, “Use of Eph Receptor Inhibitors for the Treatment of Neurodegenerative Diseases” (priority 2004, published 2008)
